Values after ≈ are worked out from the molar mass of the structure shown.
Tests used:
[1] = DPPH radical scavenging assay; conditions: 30 min, 517 nm, mean ± SEM (n = 3)
Method: Each sample's stock solution was diluted to final concentrations of 1000–0.4889 μg/mL in MeOH. A total of 1 mL of a 0.3 mM DPPH methanolic solution was added to 2.5 mL of sample solution of different concentrations and allowed to react at room temperature. After 30 min, the absorbance (Abs) values were measured at 517 nm with a microplate reader (Tecan NanoQuant Infinite M200, Switzerland) and converted into the percentage antioxidant activity using the following equation described previously: (1) % antioxidant activity=100−Abssample−Abssample blank/Abscontrol−Abscontrol blank×100. MeOH + compound solution was used as a blank, while DPPH solution plus MeOH was used as a negative control. The positive controls were DPPH solution plus 1 mM ascorbic acid. The IC50 values were calculated by linear regression of plots. The average percent of scavenging capacity was taken from three replicates.

[2] = Ferric reducing antioxidant power (FRAP); conditions: for FRAP (AAE μg): ascorbic acid equivalent, mean ± SEM (n = 3), Table 2
Method: This assay was based on the reduction of the ferric tripyridyltriazine (Fe III-TPTZ) complex to the ferrous ion (Fe II) at a low pH forming an intense blue color. In the FRAP assay, compounds that are rich in antioxidant effect exert their action by breaking the free radical chain by donating a hydrogen atom. Briefly, ferric reducing antioxidant power (FRAP) reagent (2.5 mL of a 10 mM TPTZ solution in 40 mM HCl, 2.5 mL of 20 mM FeCl3, and 25 mL of 0.1 M acetate buffer pH 3.6) was prepared and incubated for 10 min at 37°C. Then 20 μL of each compound and ascorbic acid (standard) and 40 μL of FRAP reagent were added to 140 μL of distilled water in a 96-well plate producing a blue-colored solution. The solutions were kept at room temperature for 20 min in the dark and then measured at 593 nm with a microplate reader (Tecan, Switzerland) using a reagent blank composed of 40 μL of FRAP reagents in 200 μL of distilled water. A calibration curve was prepared with a serial dilution of ascorbic acid (standard). The total antioxidant capacity was calculated by interpolating the measured absorbance of the calibration curve and expressed as ascorbic acid equivalents. The results were corrected for dilution and expressed as AAE μg of ascorbic acid/g.

[3] = target: α-glucosidase from Saccharomyces cerevisiae; experiment: α-Glucosidase inhibitory assay; assay type: biochemical; conditions: Table 3; mean ± SEM (n = 3); NA: not active
Method: α-Glucosidase inhibitory activity of the flavonoids was carried out according to the standard method with minor modification. […] A solution of 30 mM phosphate buffer (pH 6.5) was used to prepare stock solution of the sample to form a final concentration of 160 μg/mL. Then, 10 μL/well of sample was mixed with 15 μL/well of α-glucosidase from Saccharomyces cerevisiae (Megazyme, Ireland). 50 mM buffer (pH 6.5) was used to prepare the enzyme solution. Then, 115 μL/well of 30 mM buffer (pH 6.5) was added and incubated for 5 min at room temperature. Then, 75 μL/well of PNP-glucoside was added to initiate reaction and incubated at room temperature for 15 min. Finally, about 50 μL glycine at pH 10 was added to stop the reaction. The final volume of 250 μL of compound, positive control, enzyme, 30 mM buffer, and substrate was located in 96-well microplate. The absorbance (Abs) was measured using microplate reader (Tecan NanoQuant Infinite M200, Switzerland) at 405 nm to represent the amount of p-nitrophenol released from PNP-glucoside. […] The equation given below was used to calculate the inhibitory activity (%):(4) Inhibitory activity%=Abs control−Abs sample/Abs control×100%.
Tested on yeast α-glycosidase, the reaction is initiated by reacting the inhibitor (sample) with the α-glycosidase enzyme that competes with […] for the binding site, thus releasing ρ-nitrophenol which was measured in the assay.

[4] = ABTS+ radical scavenging assay; conditions: 734 nm, mean ± SEM (n = 3)
Method: An improved ABTS^+ radical decolorization assay was carried out involving direct production of the blue/green ABTS^+ chromophore through the reaction between ABTS and potassium persulfate. Addition of antioxidant to the preformed radical cation reduces it to ABTS to an extent on a time scale depending on the antioxidant activity, the concentration of the antioxidant, and the duration of the reaction. 1 ml ABTS was dissolved in water to make 7 mM concentration of the resultant solution. […] The resultant reaction mixture was allowed to stand in the dark at room temperature for 12–16 h before being used. The ABTS^+ radical solution was diluted with MeOH to an absorbance of 0.7 (±0.02) at 734 nm. Then, 100 μl of sample at various concentrations (1000–0.4889 μg/mL) was mixed with 100 μL of diluted ABTS^+ radical. Each concentration was analyzed in triplicate and the percentage decrease of absorbance at 734 nm with a microplate reader (Tecan NanoQuant Infinite M200, Switzerland) was calculated for each point and the antioxidant capacity of the tested compounds was expressed as percent inhibition (%). The radical scavenging activity of the compounds was measured according to the following equation [29]:(2) % inhibition=Acontrol−Asample/Acontrol×100. IC50 values were calculated by linear regression of plots, and the average percent of scavenging capacity was taken from three replicates. Trolox was used as a standard in comparison for the determination of the antioxidant activity of the flavonoids.

[5] = Rapid screening of radical scavenging activity by dot blot assay (DPPH staining); conditions: silica sheet stained with DPPH in MeOH, dilutions from 1000 μg/mL
Method: An aliquot (20 μL) of each dilution of each group was carefully loaded on a […] TLC plate and allowed to dry for 10 min. Drops of each sample were loaded in the order of decreased concentration along the 16 columns. The staining of the silica plate was based on the procedure of Soler-Rivas et al.. […] The intensity of the yellow color depends upon the amount and nature of radical scavenger present in the flavonoids.

[6] = target: T1, DPP-4 (Homo sapiens, UniProt P27487); experiment: Dipeptidyl peptidase IV (DPP-4) inhibitory assay; assay type: biochemical; conditions: Table 3; mean ± SEM (n = 3); NA: not active
T1 construct: purchased Cayman (Michigan, USA)
Method: Dipeptidyl peptidase (IV) inhibitors work by inhibiting the action of this enzyme, thereby prolonging the activity of incretins that play an important role in insulin secretion and blood glucose control regulation. DPP-4 inhibitory assay was performed as per the standard method (Cayman, USA). Firstly, 1 mg of sample was dissolved in 10% of DMSO and MeOH as the stock solution. For initial activity (100%), 10 μL of MeOH, 30 μL of diluted assay buffer, and 10 μL of diluted DPP-4 (Cayman, USA) were added to 96-well microplate. […] For background well, 10 μL of MeOH and 40 μL of diluted assay buffer were added. Then, 10 μL of prepared sample and 30 μL of diluted assay buffer were added with 10 μL of diluted DPP-4. After that, 50 μL of substrate solution was added to all wells to initiate the reaction and further incubated in the dark at 37°C for 30 min. Finally, plate was read at 360 nm of excitation wavelength and 465 nm of emission wavelength using fluorescence microplate reader (Perkin Elmer, Germany). All determinations were done in triplicate and half maximal concentration (IC50) values were calculated from the percentage of inhibition based on the linear regression analysis. The equation given below was applied to calculate the inhibitory activity (%):(5) Inhibitory activity%=Initial Activity−Sample/Initial Activity×100%.
For DPP-4 inhibitory assay, the reaction is based on the cleavage of the peptide bond by DPP releasing the free Gly-Pro-aminomethylcoumarin group, a fluorogenic substrate resulting in fluorescence excitation and emission.

[7] = target: T2, xanthine oxidase from buttermilk (Bos taurus, UniProt P80457); experiment: Xanthine oxidase inhibitory assay (XOI); assay type: biochemical
T2 construct: 0.3 U/mL enzymes (xanthine oxidase from buttermilk); purchased Sigma-Aldrich (Singapore); host or cells: buttermilk (natural source)
Method: XO catalyzes the oxidation of hypoxanthine to xanthine and subsequently to uric acid. The inhibition of XO reduces both vascular oxidative stress and circulating levels of uric acid. This assay is based on the fact that the superoxide anions are generated by the xanthine. The xanthine oxidase inhibitory activity was measured spectrophotometrically (Tecan NanoQuant Infinite M200, Switzerland) at 295 nm under aerobic condition with slight modification. The reaction mixture contained 50 mM phosphate buffer (pH 7.5), 0.15 mM xanthine (substrate), and 0.3 U/mL enzymes (xanthine oxidase from buttermilk). Samples were prepared by dissolving 1 mg in 5% DMSO in MeOH which gives sample concentration of 144.0 μg/mL in assay. […] The absorption increment at 295 nm indicates the formation of […] of uric acid/min at 25°C. […] All determination was done in triplicate and half maximal concentration (IC50) values were calculated from the percentage of inhibition. XO inhibition activity was expressed as the percentage inhibition of XO as follows:(3) % of inhibition=AbsA−B−C−D/AbsA−B×100, where A is the negative control with B as the blank of A which is without the enzyme and the sample while C is the activity of the sample with enzyme with D as the blank of the sample without enzyme.

T1 sequence (P27487 whole entry): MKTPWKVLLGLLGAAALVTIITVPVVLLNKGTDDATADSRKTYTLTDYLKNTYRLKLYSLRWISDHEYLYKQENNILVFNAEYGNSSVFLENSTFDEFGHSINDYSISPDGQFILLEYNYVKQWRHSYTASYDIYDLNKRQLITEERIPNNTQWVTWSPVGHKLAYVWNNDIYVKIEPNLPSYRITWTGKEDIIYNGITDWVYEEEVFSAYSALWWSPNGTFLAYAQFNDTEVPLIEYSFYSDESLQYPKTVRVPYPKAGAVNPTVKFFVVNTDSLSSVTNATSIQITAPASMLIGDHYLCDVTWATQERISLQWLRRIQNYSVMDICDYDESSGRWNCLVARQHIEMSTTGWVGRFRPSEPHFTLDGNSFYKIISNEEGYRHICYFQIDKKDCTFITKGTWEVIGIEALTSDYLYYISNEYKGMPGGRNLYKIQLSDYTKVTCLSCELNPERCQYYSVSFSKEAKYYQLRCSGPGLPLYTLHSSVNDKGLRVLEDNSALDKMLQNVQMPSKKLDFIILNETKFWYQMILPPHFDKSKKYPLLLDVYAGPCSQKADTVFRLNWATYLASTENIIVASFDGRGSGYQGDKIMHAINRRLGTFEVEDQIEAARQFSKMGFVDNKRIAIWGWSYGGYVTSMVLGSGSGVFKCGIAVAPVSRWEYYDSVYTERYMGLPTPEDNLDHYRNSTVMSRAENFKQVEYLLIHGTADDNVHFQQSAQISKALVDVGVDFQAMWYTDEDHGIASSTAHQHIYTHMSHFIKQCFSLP
T2 sequence (P80457 whole entry): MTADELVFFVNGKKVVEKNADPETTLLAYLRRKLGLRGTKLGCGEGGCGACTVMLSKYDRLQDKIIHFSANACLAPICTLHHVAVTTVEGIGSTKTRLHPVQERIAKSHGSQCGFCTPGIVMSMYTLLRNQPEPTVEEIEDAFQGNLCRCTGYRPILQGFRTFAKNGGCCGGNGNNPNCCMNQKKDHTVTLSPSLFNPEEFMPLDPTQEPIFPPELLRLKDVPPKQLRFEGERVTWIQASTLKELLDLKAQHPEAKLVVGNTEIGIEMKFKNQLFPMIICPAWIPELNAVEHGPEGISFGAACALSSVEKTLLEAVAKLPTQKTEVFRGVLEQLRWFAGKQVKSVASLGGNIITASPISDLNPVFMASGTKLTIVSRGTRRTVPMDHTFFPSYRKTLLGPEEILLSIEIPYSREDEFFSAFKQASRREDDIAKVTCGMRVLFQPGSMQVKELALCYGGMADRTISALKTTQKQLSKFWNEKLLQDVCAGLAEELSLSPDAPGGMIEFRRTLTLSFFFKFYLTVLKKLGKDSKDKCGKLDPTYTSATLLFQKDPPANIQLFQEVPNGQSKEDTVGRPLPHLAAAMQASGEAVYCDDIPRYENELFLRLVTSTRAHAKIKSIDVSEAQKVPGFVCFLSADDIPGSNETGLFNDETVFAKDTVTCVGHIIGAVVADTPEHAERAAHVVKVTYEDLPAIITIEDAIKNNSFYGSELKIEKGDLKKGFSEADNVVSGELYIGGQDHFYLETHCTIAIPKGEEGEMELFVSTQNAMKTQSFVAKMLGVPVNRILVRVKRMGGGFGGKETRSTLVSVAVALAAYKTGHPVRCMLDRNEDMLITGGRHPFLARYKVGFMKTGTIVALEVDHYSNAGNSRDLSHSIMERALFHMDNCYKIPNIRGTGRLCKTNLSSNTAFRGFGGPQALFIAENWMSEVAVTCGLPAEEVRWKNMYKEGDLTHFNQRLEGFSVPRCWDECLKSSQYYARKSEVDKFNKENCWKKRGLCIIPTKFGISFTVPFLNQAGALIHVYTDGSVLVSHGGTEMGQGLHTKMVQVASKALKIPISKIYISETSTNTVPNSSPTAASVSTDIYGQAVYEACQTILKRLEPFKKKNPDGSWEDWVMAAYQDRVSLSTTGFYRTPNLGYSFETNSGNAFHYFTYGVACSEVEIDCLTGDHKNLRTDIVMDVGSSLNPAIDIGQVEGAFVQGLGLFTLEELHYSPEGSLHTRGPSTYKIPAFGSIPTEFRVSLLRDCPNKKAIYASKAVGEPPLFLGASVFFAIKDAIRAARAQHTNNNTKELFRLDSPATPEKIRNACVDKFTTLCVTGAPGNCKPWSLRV

Row | SMILES | IC50 DPPH [1] | FRAP antioxidant capacity [2] | FRAP (AAE μg) [2] | IC50 α-Glucosidase [3] | IC50 ABTS+ [4] | radical scavenging activity by dot blot (intensity of yellow spots) [5] | IC50 [6] [µM] | IC50 ABTS+ ([4]; listed as wogonin) [µg/mL] | xanthine oxidase inhibitory effect (in words) ([7]; discussion) | IC50 ([7]; xanthine oxidase inhibition, 295 nm, mean ± SEM (n = 3), NA: not active) [µM]
1 | O=c1cc(-c2ccccc2)oc2c(O)c(O)cc(O)c12 [Norwogonin, 5,7,8-Trihydroxyflavone] | 35.61 ± 1.68^D µg/ml | 177.37 ± 1.82 AAE μg of ascorbic acid/g | 152.14 ± 7.30^C AAE μg | >100^A µg/mg | 1.24 ± 0.19^FG µg/ml | intermediate radical scavenging activity | > 370 |  |  | 
2 | COc1c(O)cc(O)c2c(=O)cc(-c3ccccc3)oc12 [Wogonin, 5,7-Dihydroxy-8-methoxyflavone] | >100^B µg/ml | 39.15 ± 1.68 AAE μg of ascorbic acid/g | 39.15 ± 1.68^E AAE μg | >100^A µg/mg | 52.63 ± 2.99^D µg/ml | intermediate radical scavenging activity | > 352 | 52.65 ± 2.99 (≈ 185 µM) |  | 
3 | COc1c(OC(C)=O)cc(OC(C)=O)c2c(=O)cc(-c3ccccc3)oc12 [Acetate (wogonin), 5,7-Diacetoxy-8-methoxyflavone] | >200^A µg/ml | 5.06 ± 3.24 AAE μg of ascorbic acid/g | 5.06 ± 3.24^G AAE μg | >100^A µg/mg | >200^A µg/ml | did not show any spot |  |  |  | 
4 | COc1ccc2c(=O)cc(-c3ccccc3)oc2c1O [8-Hydroxy-7-methoxyflavone] | 68.24 ± 3.70^C µg/ml | 104.92 ± 8.29 AAE μg of ascorbic acid/g | 104.92 ± 8.29^D AAE μg | >100^A µg/mg | 3.19 ± 0.15^F µg/ml | intermediate radical scavenging activity | > 373 |  |  | 
5 | O=c1cc(-c2ccccc2)oc2cc(O)cc(O)c12 [Chrysin, 5,7-Dihydroxyflavone] | >100^B µg/ml | 21.38 ± 1.86 AAE μg of ascorbic acid/g | 21.38 ± 1.86^F AAE μg | >100^A µg/mg | >100^B µg/ml | intermediate radical scavenging activity |  |  | low xanthine oxidase inhibitory activity | > 393

From article PMC5727842, “Antioxidant and Antidiabetic Effects of Flavonoids: A Structure-Activity Relationship Based Study” (BioMed Research International, 2017)
